According to ChEMBL document CHEMBL3352746, “Synthesis and anticancer activity of quinopimaric and maleopimaric acids’ derivatives” (Bioorg Med Chem, 2014):
Activity calls are given as the source filed them. The rule behind the calls is not given here.

Legend:
[1] = tested on: Mus musculus; experiment: Toxicity in mouse CA-755 cells implanted mouse assessed as mouse mortality at 40 mg/kg, ip dosed daily for 5 days; type: organism-based; parameters: dose 40 mg/kg, route intraperitoneal; details: in vivo, 120 h
[2] = Antitumor activity against mouse CA-755 cells implanted in mouse assessed as tumor growth inhibition at 40 mg/kg, ip dosed daily for 5 days measured 5 days after treatment termination; type: functional; details: CA-755, ip, 120 h, route intraperitoneal, read-out: TGI
[3] = Growth inhibition of human OVCAR8 cells; type: functional, OVCAR-8
[4] = tested on: ACHN; experiment: Growth inhibition of human ACHN cells; type: functional
[5] = Growth inhibition of human SF539 cells; type: functional
[6] = tested on: Mus musculus; experiment: Toxicity in mouse LLC cells implanted mouse assessed as mouse mortality at 40 mg/kg, ip dosed daily for 5 days; type: organism-based; parameters: dose 40 mg/kg, route intraperitoneal; details: in vivo, 120 h
[7] = tested on: 786-0; experiment: Growth inhibition of human 786-0 cells; type: functional
[8] = tested on: SF-268; experiment: Growth inhibition of human SF268 cells; type: functional
[9] = tested on: Mus musculus; experiment: Toxicity in mouse P388 cells implanted mouse assessed as mean ascites volume at 20 mg/kg, ip dosed daily for 5 days administered 24 hrs after tumor implantation; type: organism-based; parameters: dose 20 mg/kg, route intraperitoneal; details: in vivo
[10] = tested on: Mus musculus; experiment: Toxicity in mouse Ehrlich carcinoma cells implanted mouse assessed as mean spleen weight at 50 mg/kg, ip dosed daily for 5 days administered 48 hrs after tumor implantation; type: organism-based; parameters: dose 50 mg/kg, route intraperitoneal; details: in vivo
[11] = tested on: Mus musculus; experiment: Toxicity in mouse P388 cells implanted mouse assessed as mean ascites volume at 60 mg/kg, ip dosed daily for 5 days administered 24 hrs after tumor implantation; type: organism-based; parameters: dose 60 mg/kg, route intraperitoneal; details: in vivo
[12] = Growth inhibition of human RPMI8226 cells; type: functional, RPMI-8226
[13] = Growth inhibition of human Hs 578T cells; type: functional
[14] = Growth inhibition of human UACC257 cells; type: functional
[15] = tested on: A498; experiment: Growth inhibition of human A498 cells; type: functional
[16] = tested on: NCI60; experiment: Cytotoxicity against human NCI60 cells assessed as cell growth at 10 uM; type: functional
[17] = Growth inhibition of human RXF393 cells; type: functional
[18] = Antitumor activity against mouse CA-755 cells implanted in mouse assessed as tumor growth inhibition at 40 mg/kg, ip dosed daily for 5 days measured 16 days after treatment termination; type: functional; details: CA-755, ip, route intraperitoneal, read-out: TGI
[19] = read-out: pLC50 (the source's name) (converted)

## COC(=O)[C@]1(C)CCC[C@]2(C)[C@H]3C[C@H]4C(C(C)C)=C[C@]3(CC[C@H]21)[C@@H]1/C(=N/O)CC/C(=N\O)[C@@H]14
[1]
  Activity: Non-toxic
[2]
  inhibition in vivo at 40 mg/kg: 72%
[3]; OVCAR-8
  GI50: 3.24 µM
[3]; OVCAR-8, read-out: pLC50 (converted)
  CC50: > 100 µM
[3]; OVCAR-8, read-out: pTGI (converted)
  TGI: 12.6 µM
[4]
  GI50: 3.31 µM
[4]; [19]
  CC50: 32.4 µM
[4]; read-out: pTGI (converted)
  TGI: 10.5 µM
[5]; SF-539
  GI50: 9.12 µM
[5]; SF-539, read-out: pLC50 (the source's name) (converted)
  CC50: 46.8 µM
[5]; SF-539, read-out: pTGI (converted)
  TGI: 21.4 µM
[6]
  Activity: Non-toxic
[7]
  GI50: 5.75 µM
[7]; [19]
  CC50: 53.7 µM
[7]; read-out: pTGI (converted)
  TGI: 19.5 µM
[8]
  GI50: 4.37 µM
[8]; [19]
  CC50: 55 µM
[8]; read-out: pTGI (converted)
  TGI: 17 µM
[9]
  Activity: 0.57 mL
[10]
  Activity: 104 mg
[11]
  Activity: 0.6 mL
[12]; RPMI-8226
  GI50: 2.09 µM
[12]; RPMI-8226, read-out: pLC50 (converted)
  CC50: > 100 µM
[12]; RPMI-8226, read-out: pTGI (converted)
  TGI: 4.79 µM
[13]
  GI50: 0.01 µM
[13]; [19]
  CC50: 11.2 µM
[13]; read-out: pTGI (converted)
  TGI: 2.04 µM
[14]; UACC-257
  GI50: 3.63 µM
[14]; UACC-257, read-out: pLC50 (the source's name) (converted)
  CC50: 38.9 µM
[14]; UACC-257, read-out: pTGI (converted)
  TGI: 12 µM
[15]
  GI50: 2.24 µM
[15]; [19]
  CC50: 25.1 µM
[15]; read-out: pTGI (converted)
  TGI: 6.76 µM
[16]
  Activity: Active
[17]; RXF 393
  GI50: 2.14 µM
[17]; RXF 393, read-out: pLC50 (the source's name) (converted)
  CC50: 8.91 µM
[17]; RXF 393, read-out: pTGI (converted)
  TGI: 4.37 µM
[18]
  inhibition in vivo at 40 mg/kg: 32%
